Results as given in patent US20130123326A1, “ALLOSTERIC BINDING COMPOUNDS” (REGION MIDTJYLLAND, priority 2009, published 2013).

Legend:
hSERT [1] = target: T1, hSERT (Homo sapiens, UniProt P31645); experiment: 5-HT uptake inhibition assay: allo-ligand potentiating effect on uptake inhibition by S-citalopram; assay type: cell-based; settings: [3H]5-HT uptake, hSERT-transfected HEK-293-MSR cells; allosteric ligand in the 600 nM range
Experimental: Cell lines expressing the serotonin transporter constitute the most popular in vitro screening system for classical antidepressants, which will inhibit the transporter in uptake of serotonin. The inhibitory potency of the allosteric ligands is determined and expressed as an IC50 value in that a lowering of the IC50 values, when the concentration of the allosteric ligands increases, indicates an add-on inhibitory effect due to the presence of the allosteric ligand.
Transfection of HEK-293-MSR Cell Cultures
For transfections, 0.2 μg of pcDNA3 plasmid vector containing a hSERT cDNA insert and 0.4 μl of Fugene6 (Roche) were used per cm2 of plating area. Plasmid and Fugene6 were mixed with DMEM according to the manufacturer's recommendations. HEK-293-MSR cells were treated with trypsin, suspended in growth media and added to the Plasmid/Fugene6 mixture. Transfected cells were dispensed into white 96-well growth plates (Corning) or 150 mm cell culture discs at 60-80% confluence.
5-HT Uptake Inhibition Assays
Uptake assays were performed 40-50 hours after transfection. […] Cells were lysed in 50 μl MicroScint-20 (Packard), and the radiolabeled serotonin accumulated in the cells was quantified in a Packard TopCounter NXT microplate scintillation counter. Exact [^3H]5-HT reaction concentrations were determined in a Packard TRI-CARB® Liquid scintillation analyzer. […]

hSERT [2] = target: T1, hSERT; experiment: Dissociation assay with [3H]-citalopram and hSERT membrane preparations; assay type: binding
Experimental: Dulbecco's modified Eagle's medium, fetal bovine serum, trypsin, and penicillin/streptomycin were purchased from Invitrogen. Cell culture flasks were from NUNC. MicroScint-20 scintillation mixture was from Packard. [^3H]-Citalopram (85 Ci/mmol) was a gift from H. Lundbeck A/S (Valby, Denmark). Fugene-6 transfection reagent was from Roche Molecular Biochemicals. All chemicals are commercially available. Stock solutions of the allosteric ligands were prepared as 100 mM in EtOH.
The pcDNA3 plasmid vector containing the hSERT gene was used for transfection.
17.5 μl Fugene-6 (Roche Molecular Biochemicals) were mixed with 280 μl Dulbecco's modified Eagle's medium, and incubated at room temperature for 5 minutes. 10 μg of hSERT plasmid were added and the mixture was further incubated at least 15 minutes. […] The cells were plated at 35% confluency in a 150 mm dish, and grown at 37° C. for 64 h. Prior to harvesting the dish was rinsed in PBS. Cells were harvested with a cell scraper in buffer 1 (50 mM Tris-base, 150 mM NaCl, 20 mM EDTA, pH 7.4). After centrifugation (3000 g at 4° C. for 10 mins), cells were suspended and homogenized with an IKA Ultra-Turrax from Rose Scientific Ltd (Edmonton, Alberta, Canada) for 20 s in buffer 1. Membranes were pelleted by ultracentrifugation (12 000 g at 4° C. for 15 min) and homogenization was repeated in buffer 1. Finally, after ultracentrifugation (12000 g, 4° C., 15 min) membranes were resuspended in 1 ml buffer 3 (50 mM Tris-base, 120 mM NaCl, 5 mM KCl, pH 7.4) and stored at −80° C.
Dissociation Assay with [^3H]-Citalopram and Membrane Preparations.
SERT-[^3H]-citalopram complex was formed by incubating hSERT membrane preparation and radioligand in buffer 3 during a 60 min incubation at 4° C. Radioligand was present at a concentration 10 times the Kd value. The time kinetic of dissociation was followed by adding 10 μL complex solution to 250 μL buffer 3 in 96-well plates and incubating subsequently for increasing time intervals at RT. Reactions were terminated by filtration through GF/C glass-fibre filters (Unifilter, Perkin Elmer Life Sciences), preincubated with 40 μl 0.5% polyethyleneimine, using a Pachard Bell cell harvester, and subsequently washed three times with water. Filters were soaked in 40 μl Microscint 20 scintillation liquid (Pachard Bell). Bound radioactivity was determined by direct counting of plates using a Packard Bell microplate scintillation counter. Dissociation curves were obtained by plotting residual binding vs. time of dissociation.
The concentrations of allosteric compound in the dissociation buffer range from 400-0.2 μM.
The relative off-rate is expressed as the off-rate of the radioligand at a given concentration of allosteric compound, normalized to the off-rate of radioligand in the absence of allosteric compound.
The maximum stabilization factor is defined as the estimated upper plateau of the sigmoidal response curve, and describes how many folds the off-rate of bound radioligand from SERT can be attenuated in the presence of increasing concentrations of allosteric compound in the dissociation buffer.

T1 sequence (P31645 whole entry): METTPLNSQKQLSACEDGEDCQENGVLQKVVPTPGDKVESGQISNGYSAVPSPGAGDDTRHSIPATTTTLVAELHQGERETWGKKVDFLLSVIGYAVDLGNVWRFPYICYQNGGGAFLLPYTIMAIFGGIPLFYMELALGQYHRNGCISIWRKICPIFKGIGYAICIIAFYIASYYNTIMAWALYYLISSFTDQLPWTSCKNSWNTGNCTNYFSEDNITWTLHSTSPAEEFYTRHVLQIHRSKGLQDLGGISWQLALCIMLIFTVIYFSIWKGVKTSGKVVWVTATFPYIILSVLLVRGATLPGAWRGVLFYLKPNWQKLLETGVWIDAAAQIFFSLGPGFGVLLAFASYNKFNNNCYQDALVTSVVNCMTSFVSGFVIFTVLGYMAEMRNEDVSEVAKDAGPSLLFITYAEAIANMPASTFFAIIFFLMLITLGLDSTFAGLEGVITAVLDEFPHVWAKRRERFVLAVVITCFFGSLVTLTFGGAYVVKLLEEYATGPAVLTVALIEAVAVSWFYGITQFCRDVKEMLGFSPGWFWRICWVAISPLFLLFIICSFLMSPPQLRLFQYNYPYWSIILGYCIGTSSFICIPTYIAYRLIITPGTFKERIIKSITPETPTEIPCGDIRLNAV

reduction of S-citalopram IC50 values (add-on effect) (hSERT [1]): up to 2 fold
EC50 (hSERT [2]; concentration of allosteric compound inducing 50% attenuation of the off-rate of the radioligand from SERT, 10 μM fluoxetine in dissociation buffer, read-out: EC50): 0.7 µM
Max. Stability (maximum stabilization factor) (hSERT [2]; estimated upper plateau of sigmoidal response curve: how many folds the off-rate of bound radioligand from SERT can be attenuated, N/A = No activity): 27
SMILES: N#CCSc1cccc2ccccc12 [Example 36, (Naphthalen-1-Ylsulfanyl)-Acetonitrile]
